Reference: patent US6022696A, “Methods of identifying agonists or antagonists of angiotensin IV” (Washington State University Research Foundation, priority 1998, dated 2000)
pKd, pKi: −log10 of the molar value. Entries after “also recorded” stand apart in the source; their conditions may differ. Like-named read-outs stand apart in the source and are kept apart here. Non-standard residues stand in square brackets, D forms with d. Residues, ends and D or L forms follow the SMILES beside them. No end group written: not given here. NMeI = CC[C@H](C)[C@H](NC)C(=O)O

Key:
[1] = type: in vitro ADME, rat; settings: for metabolic stability, in words: rat kidney membranes / homogenates
[2] = test system: rat; test: Systemic arterial blood pressure during renal artery infusion
[3] = target: T1, AT1 receptor (Bos taurus, UniProt P25104); type: binding, bovine
T1 construct: from tissue; host or cells: bovine adrenal cortex membranes
T1 sequence (P25104 1-359): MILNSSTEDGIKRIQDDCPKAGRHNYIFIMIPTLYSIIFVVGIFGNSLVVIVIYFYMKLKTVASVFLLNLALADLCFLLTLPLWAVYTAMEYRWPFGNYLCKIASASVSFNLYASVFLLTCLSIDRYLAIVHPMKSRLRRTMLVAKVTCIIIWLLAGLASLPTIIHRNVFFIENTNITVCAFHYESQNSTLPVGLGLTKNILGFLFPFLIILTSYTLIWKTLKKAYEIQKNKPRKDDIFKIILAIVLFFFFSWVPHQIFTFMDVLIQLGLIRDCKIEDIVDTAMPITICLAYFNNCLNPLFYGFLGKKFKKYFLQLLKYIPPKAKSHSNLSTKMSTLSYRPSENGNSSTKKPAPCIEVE

[4] = arterial and venous blood in man; cited from earlier work
[5] = target: T2, AT4 receptor (Bos taurus, UniProt F1N1Q8); test: 125I-AIV binding and competition, bovine adrenal cortical membranes
T2 sequence (F1N1Q8 1-1022): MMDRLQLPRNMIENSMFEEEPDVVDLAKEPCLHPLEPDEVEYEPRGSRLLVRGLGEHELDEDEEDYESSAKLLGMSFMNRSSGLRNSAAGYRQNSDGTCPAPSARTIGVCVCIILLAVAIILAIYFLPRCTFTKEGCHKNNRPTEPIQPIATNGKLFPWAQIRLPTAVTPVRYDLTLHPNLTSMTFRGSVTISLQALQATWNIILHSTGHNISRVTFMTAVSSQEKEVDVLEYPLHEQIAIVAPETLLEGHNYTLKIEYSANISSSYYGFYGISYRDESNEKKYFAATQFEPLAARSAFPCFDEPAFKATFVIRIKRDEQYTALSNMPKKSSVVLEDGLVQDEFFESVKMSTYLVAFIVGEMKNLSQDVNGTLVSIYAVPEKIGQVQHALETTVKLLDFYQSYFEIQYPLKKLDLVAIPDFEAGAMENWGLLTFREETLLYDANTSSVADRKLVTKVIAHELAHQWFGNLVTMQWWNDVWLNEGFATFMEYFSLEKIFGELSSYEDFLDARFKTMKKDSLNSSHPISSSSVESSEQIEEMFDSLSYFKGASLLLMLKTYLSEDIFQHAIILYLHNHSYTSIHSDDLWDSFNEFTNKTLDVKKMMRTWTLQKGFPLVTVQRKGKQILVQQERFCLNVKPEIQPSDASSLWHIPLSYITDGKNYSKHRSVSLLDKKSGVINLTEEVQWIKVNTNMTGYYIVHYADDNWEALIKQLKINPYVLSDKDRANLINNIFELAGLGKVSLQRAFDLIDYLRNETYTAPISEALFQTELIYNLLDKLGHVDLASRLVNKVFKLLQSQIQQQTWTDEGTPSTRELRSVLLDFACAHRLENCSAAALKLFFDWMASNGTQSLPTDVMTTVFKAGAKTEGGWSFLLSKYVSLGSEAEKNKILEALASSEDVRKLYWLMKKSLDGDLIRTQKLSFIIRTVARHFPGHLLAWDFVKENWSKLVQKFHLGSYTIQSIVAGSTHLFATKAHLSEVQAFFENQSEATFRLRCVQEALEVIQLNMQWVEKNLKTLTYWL

[6] = target: T2, AT4 receptor; test: 125I-AIV binding, bovine aortic endothelial cell (BAEC) membranes; settings: BAEC membranes preincubated 60 min at 22° C.
[7] = target: T3, AT1 receptors (Rattus norvegicus, UniProt P25095); test: Effect of GTPγS on 125I-AII binding, rat vascular smooth muscle cell (RVSMC) membranes; settings: dose-dependent
T3 construct: membrane fractions from rat vascular smooth muscle cells (RVSMC); endogenous in cells; host or cells: rat vascular smooth muscle cell line WKY IV, passage #17, membrane preparation
T3 sequence (P25095 1-359): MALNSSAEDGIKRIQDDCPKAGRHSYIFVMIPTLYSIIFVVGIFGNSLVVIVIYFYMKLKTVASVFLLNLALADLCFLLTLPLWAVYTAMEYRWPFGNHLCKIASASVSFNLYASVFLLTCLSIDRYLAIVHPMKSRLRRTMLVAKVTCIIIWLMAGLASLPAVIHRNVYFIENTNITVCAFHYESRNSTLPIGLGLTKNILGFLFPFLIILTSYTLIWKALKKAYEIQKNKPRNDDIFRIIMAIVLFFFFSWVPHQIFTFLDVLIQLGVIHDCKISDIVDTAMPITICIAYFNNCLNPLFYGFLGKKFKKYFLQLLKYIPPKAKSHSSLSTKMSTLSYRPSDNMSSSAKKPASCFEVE

[8] = Stability of angiotensin peptides in binding assay buffer / assay conditions; type: physicochemical
[9] = target: T2, AT4 receptor; test: 125I-AIV binding and competition, bovine coronary venular endothelial cell (CVEC) membranes
[10] = test system: vascular endothelial cells; test: EDRF production in vascular endothelial cells; type: cell-based
Description: Bovine aortic endothelial cells were grown at 37° C. in 35 mm culture plates under 5% CO2 in air in Dulbecco's Modified Eagle's Medium (DMEM) supplemented with 5 μg/ml insulin and 10% (v/v) newborn bovine serum (NBBS). The medium was aspirated 10-12 hours after seeding and replaced with serum-free medium. The medium was again aspirated 10-12 hours later and replaced with either test or control medium. Control medium was DMEM with 5 µg/ml insulin and 2%, 5%, or 10% (v/v) NBBS as indicated. […] The medium was changed every 48 h (i.e., with supportive DMEM medium for the remainder of the experiment).

[11] = test system: rat kidney; test: Renal cortical blood flow (laser doppler) after infusion into the renal artery; type: in vivo
[12] = bovine adrenal cortical AT4 receptor

In the case of `CC(C)[C@H](N)CN[C@@H](Cc1ccc(O)cc1)C(=O)N[C@H](CN[C@@H](Cc1c[nH]cn1)C(=O)N1CCC[C@H]1C(=O)N[C@@H](Cc1ccccc1)C(=O)O)C(C)C` [Val1 Val3 AIV, ^+ H3 N-Val(CH2 NH)Tyr-Val(CH2 NH)-His-Pro-Phe-COO--], the “metabolic stability, in words” value ([1]; listed as Val(I)Val(3) AIV) was “totally resistant to enzymatic degradation”, the “metabolic stability, in words” value ([1]; listed as divalinal AIV) was “enhanced metabolic stability” and the peptide remaining intact ([1]; rat kidney membranes, room temperature, after 4 hr of incubation) was 100%. For the same molecule, the “effect on arterial blood pressure” value [2] was “did not alter blood pressure or renal blood flow”.
In the case of `CC[C@H](C)[C@H](NC(=O)[C@@H](N)Cc1ccc(O)cc1)C(=O)N[C@@H](Cc1cnc[nH]1)C(=O)N1CCC[C@H]1C(=O)N[C@@H](Cc1ccccc1)C(=O)O` [AII(4-8)] (H-YIHPF-OH), the pKi [3] is given as less than 6.00 and the half-life [4] is given as 2.4 min.
In the case of `CC[C@H](C)[C@H](NC(=O)[C@H](Cc1ccc(O)cc1)NC(=O)[C@@H](NC(=O)[C@H](CCCNC(=N)N)NC(=O)[C@@H](N)CC(=O)O)C(C)C)C(=O)N[C@@H](Cc1cnc[nH]1)C(=O)N1CCC[C@H]1C(=O)N[C@@H](Cc1ccccc1)C(=O)O` [AII, Asp1 Arg2 Val3 Tyr4 Ile5 His6 Pro7 Phe8, reference compound], the half-life [4] is given as 4.4 min.
For `CC[C@H](C)[C@H](NC(=O)[C@H](Cc1ccc(O)cc1)NC(=O)[C@@H](N)CC(=O)O)C(=O)N[C@@H](Cc1c[nH]cn1)C(=O)N1CCC[C@H]1C(=O)N[C@@H](Cc1ccccc1)C(=O)O` [DYIHPF] (H-DYIHPF-OH), the pKd ([5]; read-out: Kd of analog for the AT4 receptor) was less than 6.00.
For CGP42112A [reference compound], the pKi ([3]; bovine adrenal cortical membranes) was less than 4.00.
In the case of “Phe2 Tyr6 AIV: positions of Phe and Tyr reversed, SEQ. ID. NO. 36 (VPIHYF)”, the “AT4 receptor binding affinity, in words” value [5, 12] was “very low binding affinity”.
In the case of `Nc1nc2c(ncn2[C@@H]2O[C@H](COP(=O)(O)OP(=O)(O)OP(O)(O)=S)[C@@H](O)[C@H]2O)c(=O)[nH]1` [GTPγS], the “effect on 125I-AIV binding to AT4 receptors” value [6] was “no effect; also recorded: did not inhibit (or alter) binding”, the “effect on 125I-AII binding to AT1 receptors” value [7] was “inhibited” and the “effect on 125I-AIV binding to AT4 receptors” value [5] was “not altered”.
For “125I-AII: 125I-radiolabeled AII (DRVYIHPF; also: 125I radiolabel; UniProt P01019 25-32, looked up)”, the “overall hydrolysis under conditions of the assay” value ([8]; bovine adrenal cortical membrane binding assay) was “less than 2%”.
For `CC[C@H](C)[C@H](NC(=O)[C@H](Cc1ccc(O)cc1)NC(=O)[C@@H](NC(=O)[C@@H](N)CCCNC(=N)N)C(C)C)C(=O)N[C@@H](Cc1c[nH]cn1)C(=O)N1CCC[C@H]1C(=O)N[C@@H](Cc1ccccc1)C(=O)O` [AIII, Arg1 Val2 Tyr3 Ile4 His5 Pro6 Phe7, reference compound], the “hydrolysis in binding buffer” value ([8]; 4 h at 37° C., reverse phase HPLC) is given as “less than 10%”, the “increase in Ki over AIV” value [9] is given as 20 fold and the half-life [4] is given as 2.0 min. For the same molecule, the “decrease in AT4 receptor binding affinity relative to AIV (or stated parent peptide)” value [5, 12] was “about 52 fold”.
In the case of `CC[C@H](C)[C@H](NC)C(=O)N[C@@H](Cc1ccc(O)cc1)C(=O)N[C@H](C(=O)N[C@@H](Cc1c[nH]cn1)C(=O)N1CCC[C@H]1C(=O)N[C@@H](Cc1ccccc1)C(=O)O)[C@@H](C)CC` [CH3--I1 YIHPF] (H-[NMeI]YIHPF-OH), the “decrease in AT4 receptor binding affinity relative to AIV (or stated parent peptide)” value [5, 12] was 67 fold.
In the case of `CC[C@H](C)[C@H](NC(=O)[C@H](Cc1ccc(O)cc1)NC(=O)[C@@H](N)C(C)C)C(=O)N[C@@H](Cc1cnc[nH]1)C(=O)N1CCC[C@H]1C(=O)N[C@@H](Cc1ccccc1)C(=O)O` [AIV, Val1 Tyr2 Ile3 His4 Pro5 Phe6], the “metabolic stability, in words” value [1] is listed as “rapidly degraded”, the “production of endothelial cell relaxing factor (EDRF)” value [10] is listed as “stimulating production of endothelial cell relaxing factor (EDRF)” and the half-life [4] is listed as 1.9 min. For the same molecule, the “effect on arterial blood pressure” value [2] was “not accompanied by alterations in mean arterial pressure”, the “change in renal cortical blood flow, in words” value ([11]; infusion into rat renal artery, 100 pmol/min where stated) was “profound and long-lasting increase in blood flow; also recorded: equally dramatic increase in flow” and the “agonist / antagonist activity at the AT4 receptor” value ([11]; judged from renal blood flow response compared with AIV) was “full agonistic activity”. For the same molecule, the “effect of preinfusion on agonist-induced change in renal blood flow” value ([11]; preinfusion before the named agonist) was “completely blocked the constrictive action of AII”.
